Source: patent US6407075B1, “Fatty acid treatment” (priority 1996, dated 2002)

Tests used:
[1] = system: toxic side effects of chemotherapy; assay: Clinical observations in cancer patients receiving conventional chemotherapy plus fatty acids; format: in vivo, human patients; details: patients receiving conventional chemotherapy and the fatty acid at the same time
Description: In many instances, the fatty acids have been given to patients who at that same time were receiving conventional chemotherapy for their cancer.

[2] = system: streptozotocin damage to the islet cells of the pancreas; assay: Streptozotocin-induced diabetes in rats; format: in vivo; details: fatty acid administered prior to streptozotocin
Description: In a third animal study, the anti-cancer streptozotocin was used. A major effect of this compound is to damage the islet cells of the pancreas and consequently to lead to insulin dependent diabetes.

[3] = system: cardiotoxicity of doxorubicin; assay: Cardiotoxicity of doxorubicin in mice pre-treated with fatty acids; format: in vivo; details: 20 mg doxorubicin intraperitoneally, fatty acid pre-treatment
[4] = system: lung toxicity of bleomycin; assay: Lung toxicity (fibrosis) of intratracheal bleomycin in animals; format: in vivo; details: bleomycin into the trachea, about 5-10 IU per kg body weight, 2-4 weeks
Description: We have recently supported the clinical observations by animal studies on the cardiotoxicity of doxorubicin and the lung toxicity of bleomycin. When 20 mg of doxorubicin (DOX) is given intraperitoneally to mice, the animals usually die within two weeks because of cardiac damage. When animals were pre-treated with LA or with GLA or with EPA or with DHA in various doses and chemical forms, the death rate to the same dose of doxorubicin was reduced to between 20% and 60% depending on the dose and the precise chemical administered. […] Similarly, bleomycin introduced into the trachea of animals under anaesthesia at a dose of about 5-10 IU per kg body weight, within 2-4 weeks the animals develop severe lung fibrosis which is very similar to the fibrosis which occurs in human patients treated with bleomycin. […] In a third animal study, the anti-cancer streptozotocin was used. A major effect of this compound is to damage the islet cells of the pancreas and consequently to lead to insulin dependent diabetes.

[5] = system: side effects of chemotherapy; assay: Case histories of patients given fatty acid derivatives with chemotherapy; format: in vivo, human patients
Description: The following histories illustrate use of the invention
This chemotherapy regime normally causes severe vomiting and nausea, marked malaise and anorexia.
C. […] The chemotherapy regime normally causes nausea, vomiting, mucositis and white cell suppression.
This normally causes nausea, vomiting, white cell suppression and mucositis.

[6] = case C, breast cancer, 'CMF' regime, 30 g cumulative intravenously, then 2 g/day oral
[7] = case D, metastatic colon cancer, 5-fluorouracil, 3 g/day from two weeks before and during chemotherapy

CC/C=C\C/C=C\C/C=C\C/C=C\C/C=C\C/C=C\CCC(=O)O [DHA, docosahexaenoic acid]
toxic side effects of chemotherapy [1]: substantially reduced

CC/C=C\C/C=C\C/C=C\C/C=C\C/C=C\CCCC(=O)O [EPA, eicosapentaenoic acid]
toxic side effects of chemotherapy [1]: substantially reduced

CCCCC/C=C\C/C=C\C/C=C\CCCCC(=O)O [GLA, gamma-linolenic acid]
likelihood of the development of diabetes [2]: greatly reduced | reduction in cardiac weight characteristic of doxorubicin toxicity [3]: considerably attenuated | toxic side effects of chemotherapy [1]: substantially reduced | lung pathological changes and increased production of fibrous tissue [4]: almost entirely suppress

CCCCC/C=C\C/C=C\CCCCCCCC(=O)O [LA, linoleic acid]
likelihood of the development of diabetes [2]: greatly reduced | reduction in cardiac weight characteristic of doxorubicin toxicity [3]: considerably attenuated | toxic side effects of chemotherapy [1]: substantially reduced | lung pathological changes and increased production of fibrous tissue [4]: almost entirely suppress

CCCCC/C=C\C/C=C\C/C=C\CCCCC(=O)[O-].[Li+] [lithium salt of gammalinolenic acid]
general well-being ([5]; case B, Hodgkin's disease, 'MOPP' regime, 3 g per day orally): remained well and able to continue working | nausea ([5]; case B, Hodgkin's disease, 'MOPP' regime, 3 g per day orally from one week before and throughout chemotherapy): only mild nausea | nausea [5, 6]: only mild nausea | suppression of the white cell count [5, 6]: less than expected | vomiting or mucositis [5, 6]: no vomiting or mucositis

CC/C=C\C/C=C\C/C=C\C/C=C\C/C=C\CCCC(=O)OCC(COC(=O)CCC/C=C\C/C=C\C/C=C\C/C=C\C/C=C\CC)OC(=O)CCC/C=C\C/C=C\C/C=C\C/C=C\C/C=C\CC [triglyceride of eicosapentaenoic acid]
nausea and white cell suppression [5, 7]: less than expected | vomiting or mucositis [5, 7]: no vomiting or mucositis

dilinoleoyl-monogammalinolenoyl-glycerol [DLMG]
general well-being ([5]; case A, glioblastoma patient, carmustine): felt well throughout | nausea ([5]; case A, glioblastoma patient, carmustine, given prior to and during the course): only very mild nausea
